From PubChem BioAssay (NCI)
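Each compound was tested at five concentrations against cells in 96-well plates for 48 hours. GI50 marks 50% less growth. At the TGI there is no net growth.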

How the values were obtained:
Test in all cases: DTP human tumour cell line panel, 48 h
[1] = system: HCT-116 colon
[2] = system: SNB-19 CNS
[3] = system: SK-OV-3 ovarian
[4] = system: KM12 colon
[5] = system: UACC-62 melanoma
[6] = system: ACHN renal
[7] = system: MOLT-4 leukemia
[8] = system: SK-MEL-5 melanoma

SMILES	GI50 [1] [µM]	TGI [1] [µM]	GI50 [2] [µM]	TGI [2] [µM]	GI50 [3] [µM]	TGI [3] [µM]	GI50 [4] [µM]	TGI [4] [µM]	GI50 [5] [µM]	TGI [5] [µM]	GI50 [6] [µM]	TGI [6] [µM]	GI50 [7] [µM]	TGI [7] [µM]	GI50 [8] [µM]	TGI [8] [µM]
CN1CCN(CCCn2c(=O)c3sc4ncccc4c3n3nnc(-c4ccccc4)c23)CC1	5.23	11.7	8.41	15.8	8.88	15.9	4.24	10.7	8.85	16.1	8.2	15.1	1.55	4.95	7.21	13.8
N#CC(C#N)=CNC(N)=S		> 100		> 100		> 100		> 100		> 100		> 100		> 100		> 100
N=Nc1c(OC(=O)Nc2cccc(Cl)c2)[nH]c2ccccc12		14.1		18.5		21.2		14.3		21.1		20.3		25.8		24
Cc1ccccc1S(=O)(=O)OC1NS(=O)(=O)c2ccccc21 (stereo not given)		> 100		> 100		> 100		> 100		> 100		> 100		> 100		> 100
CC(C)[C@H]1COC(=O)N1[C@@H]1C(=O)N([C@@H](CCC(=O)N2CCN(C3CCCC3)CC2)C(=O)N[C@@H]2CCCc3ccccc32)[C@@H]1/C=C/c1cccc(Br)c1	1.57	2.99	2.77	14.5	2.82	8.21	2.17	5.83	1.8	3.58			1.45	7.39	1.51	2.84
C[C@@H]1CCC2[C@@H](C)[C@@H](OCC(CO[C@H]3OC4O[C@@]5(C)CC[C@H]6[C@H](C)CCC([C@H]3C)[C@@]46OO5)OC(=O)CCC(=O)O)OC3O[C@@]4(C)CC[C@@H]1[C@]32OO4 (stereo not given in full)	< 0.01	14.6	10.1	23.1	27.2	> 100	< 0.01		0.0765	21.2	0.126	17.5	0.537	> 48.7	0.147	17.5
COc1ccc(-c2nnc(COc3ccc(C(=O)/C=C/c4ccco4)cc3)o2)cc1	1.82	3.36	5.56	18.2	12.2	24.6	1.75	3.62	3.14	11.2	2.12	5.03	2.89	9.05	3.16	11.1
CC(=O)[C@@]12O[C@@H]1CC1C3CCC4=CC(O)CCC4(C)C3CCC12C (stereo not given in full)	31.7	> 100	38.8	> 100			24.7	> 100	> 100	> 100	44.9	> 100	> 100	> 100	> 100	> 100
C=C1NC(=O)C(C(C)CC)NC(=O)C2CSCC(NC(=O)CCC(=O)O)C(=O)NC(Cc3ccccc3)C(=O)NC(C)C(=O)NC(CC(C)CC)C(=O)NC(C(=O)NC(Cc3ccccc3)C(=O)N3CCCC3C(=O)N2)C(C)OC(=O)C(CO)NC(=O)C(C(O)COC)N(C)C(=O)C(C(C)C)NC(=O)C(CC(C)CC)NC1=O (stereo not given)	0.0137	> 6	0.0255	> 6	0.0243	> 6	0.00529	> 6	0.00311	> 6	0.0553	> 6	0.0552	> 6	0.00637	0.427
Fc1cc2[nH]ncc2c2c3c(c(-c4cn[nH]c4)nc12)CCCC3	0.498	> 37.5	1.65	17.1	0.287	1.24	1	7.38	0.632	2.31	0.327	10.3	1.72	6.15	0.552	2.12
CCOC(=O)c1cc2nc3ccccc3c(=O)n2c2ccccc12		> 10		> 10		> 10		> 10		> 10		> 10				> 10
O=C1c2cc3c(cc2-c2c1c1ccc(F)cc1c(=O)n2CCCNCCO)OCO3	0.019	0.196	0.0431	1.16	0.0525	0.566	0.0646	1.06	0.0281	0.174	0.0247	0.104	0.024	1.24	0.109	0.232
Cc1cc2c(cc1Cl)SC(N(N(C)C)S(=O)(=O)c1ccc(Cl)cc1)=NS2(=O)=O	23.6	71.1	25.2	> 100	33.8	> 100	22.9	> 100	22	56.1	32.1	> 100	35	> 100	15.4	28.7
C=C(Br)C(C)(Br)CCC(Br)C(C)(C)Cl (stereo not given)		25		34.4		60.4		32		40.7		35.6		24.5		32.4
O=C(CCc1nnc2sc(-c3ccc(Cl)cc3Cl)nn12)c1nc2ncccc2[nH]1	1.3	2.65	3.53	16.7	21.5	58	1.83	3.56	1.65	3.31	1.54	2.91	1.15	60.8	1.7	3.09
CCN(CC)/C(SCc1ccccc1)=C(\C(Cl)=C(Cl)Cl)[N+](=O)[O-]		28.2		97.5		> 100		36.5		18.1		29.8		44.5		30.5
CC1(C)C2CCC(=O)C1CC2 (stereo not given)		> 100		> 100		> 100		> 100		> 100		> 100		> 100		> 100
